Measurements published in ChEMBL document CHEMBL3351314, “Neutrophil elastase inhibitors as potential anti-inflammatory therapies” (ACS Med Chem Lett, 2014).
pEC50, pIC50: −log10 of the molar value.

What was measured:
[1] = target: T1, Neutrophil elastase (Homo sapiens, UniProt P08246); assay: Inhibition of neutrophil elastase in human plasma using MeOSuc-Ala-Ala-Pro-Val-AMC as substrate by fluorescence assay
T1 sequence (P08246 whole entry): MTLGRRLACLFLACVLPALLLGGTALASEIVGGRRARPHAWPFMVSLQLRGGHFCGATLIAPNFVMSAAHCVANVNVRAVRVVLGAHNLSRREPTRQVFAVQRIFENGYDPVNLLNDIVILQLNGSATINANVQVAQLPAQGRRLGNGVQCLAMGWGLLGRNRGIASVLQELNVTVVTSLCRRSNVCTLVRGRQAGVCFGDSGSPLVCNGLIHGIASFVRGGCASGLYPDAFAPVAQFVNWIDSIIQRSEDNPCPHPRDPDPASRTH

[2] = target: T1, Neutrophil elastase; assay: Inhibition of human neutrophil elastase using MeOSuc-Ala-Ala-Pro-Val-AMC as substrate after 15 mins by fluorescence assay

| pEC50 [1] | pIC50 [2] | SMILES |
| --- | --- | --- |
| > 9.00 | > 9.00 | CS(=O)(=O)c1cc(C#N)ccc1C1C2=C(CCC2=O)N(c2cccc(C(F)F)c2)C(=O)N1C(=O)N1CC1 (centres undefined) |
| 8.40 | 8.43 | N#Cc1ccc(C2C3=C(CCC3=O)N(c3cccc(C(F)(F)F)c3)C(=O)N2CC(=O)N2CCC2)cc1 (centres undefined) |
